By EC50 is commonly meant the concentration at which the effect is half-maximal. A low value points to higher potency in that assay.

Molecules are shown by their SMILES.

The test system of this assay is SMN protein. Description: cellular SMN ELISA (SMN protein elevation). The conditions noted are these: myoblast cell line from SMNdelta7 mouse model, 24 hours treatment; for SMN activity Fold: fold activation over DMSO control. The assay is classed as cell-based. The procedure, abridged: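 SMNdelta7 mouse-derived myoblasts were treated with compound for 24 h, then lysed. SMN protein was quantified by sandwich ELISA (HRP/TMB, 450 nm) and reported as fold over DMSO and EC50, over 20 nM–10 μM or 100 pM–10 μM depending on condition.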
On the technique in general: An ELISA detects its analyte on a solid surface through an enzyme-linked reagent.

Where [1] appears, read: ELISA condition 1: compound concentration range 20 nM-10 uM.
Setting [2] is: ELISA condition 2: compound concentration 100 pM-10 uM.

As to `C[C@@H]1C[C@H](Oc2ccc(-c3ccc(-n4cccn4)cc3O)nn2)C[C@H](C)N1` [Example 17-2, 2-(6-(((2S,4R,6R)-2,6-Dimethylpiperidin-4-yl)oxy)pyridazin-3-yl)-5-(1H-pyrazol-1-yl)phenol], under setting [1], the EC50 turned out to be 70 nM and the “SMN activity Fold” value worked out at 2.62 Fold.

Consider `Oc1cc(-n2cccn2)ccc1-c1ccc(C2CCNCC2)nn1` [Example 19-2, 2-(6-piperidin-4-yl-pyridazin-3-yl)-5-pyrazol-1-yl-phenol], for which, under setting [2], it took 402 nM to reach a half-maximal effect (EC50) and the “SMN activity Fold” value turned out to be 2.73 Fold.

Take `CN(c1ccc(-c2cc3cc(C#N)ccc3s2)nn1)C1CC(C)(C)NC(C)(C)C1` [Example 1-4, 2-(6-(methyl-(2,2,6,6-tetra-methylpiperidin-4-yl)amino)pyridazin-3-yl)benzo[b]-thio-phene-5-carbonitrile]: under setting [1], it took 90 nM to reach a half-maximal effect (EC50) and the “SMN activity Fold” value is reported as 2.05 Fold.

On to `Oc1cc(-n2cccn2)ccc1-c1ccc(N2CCC3(CC2)CNC3)nn1` [Example 18-9, 2-[6-(2,7-diaza-spiro[3.5]non-7-yl)-pyridazin-3-yl]-5-pyrazol-1-yl-phenol], for which, under setting [1], a half-maximal response (EC50) required 1180 nM and the “SMN activity Fold” value was found to be 1.93 Fold.

Regarding `CN(c1ccc(-c2ccc(-c3ccn(C)c(=O)c3)cc2O)nn1)C1CC(C)(C)NC(C)(C)C1` [Example 41-7, 4-(3-hydroxy-4-(6-(methyl(2,2,6,6-tetramethylpiperidin-4-yl)amino)pyridazin-3-yl)phenyl)-1-methylpyridin-2(1H)-one], under setting [2], the midpoint of the response, the EC50, lay at 7 nM and the “SMN activity Fold” value stood at 2.87 Fold.

Take `Oc1cc(-n2cccn2)ccc1-c1ccc(N2CCC3(CCCN3)C2)nn1` (centres unmarked) [Example 18-11, 2-[6-(1,7-diaza-spiro[4.4]non-7-yl)-pyridazin-3-yl]-5-pyrazol-1-yl-phenol]: under setting [2], the concentration for a half-maximal effect (EC50) is 320 nM and the “SMN activity Fold” value is given as 2.53 Fold.

As to `CN(c1ccc(-c2ccc(-n3cc(N)cn3)cc2O)nn1)C1CC(C)(C)NC(C)(C)C1` [Example 13-1, 5-(4-amino-1H-pyrazole-1-yl)-2-(6-(methyl(2,2,6,6-tetramethylpiperidin-4-yl)amino)pyridazin-3-yl)phenol], under setting [2], a half-maximal response (EC50) required 20 nM and the “SMN activity Fold” value is on record as 3.46 Fold.

In the case of `CN(c1ccc(-c2cc(-c3cn[nH]c3)ccc2O)nn1)C1CC(C)(C)NC(C)(C)C1` [Example 32-1, 2-(6-(methyl(2,2,6,6-tetramethylpiperidin-4-yl)amino)pyridazin-3-yl)-4-(1H-pyrazol-4-yl)phenol], under setting [2], the EC50 was found to be 125 nM and the “SMN activity Fold” value turned out to be 2.67 Fold.

For the molecule `CC1(C)CC(Nc2ccc(-c3cc4ccc(O)cc4cc3O)nn2)CC(C)(C)N1` [Example 20-3, 3-(6-((2,2,6,6-tetramethylpiperidin-4-yl)amino)pyridazin-3-yl)naphthalene-2,7-diol], under setting [2], a half-maximal effect (EC50) was put at 8 nM and the “SMN activity Fold” value amounted to 3.42 Fold.

Turning to `CC1(C)CC(Oc2ccc(-c3ccc4cnccc4c3)nn2)CC(C)(C)N1` [Example 1-11, 6-(6-((2,2,6,6-tetramethylpiperidin-4-yl)oxy)pyridazin-3-yl)isoquinoline], under setting [2], the midpoint of the response, the EC50, lay at 3900 nM and the “SMN activity Fold” value was 2.67 Fold.

As to `CN(c1ccc(-c2c(O)cc(-c3cn[nH]c3)cc2O)nn1)C1CC(C)(C)NC(C)(C)C1` [Example 25-1, 2-(6-(methyl(2,2,6,6-tetramethylpiperidin-4-yl)amino)pyridazin-3-yl)-5-(1H-pyrazol-4-yl)benzene-1,3-diol], under setting [2], the EC50 was 84 nM and the “SMN activity Fold” value worked out at 2.58 Fold.

Turning to `Oc1ccc2cc(-c3ccc(C4=CCNCC4)nn3)c(O)cc2c1` [Example 19-4, 3-(6-(1,2,3,6-tetrahydropyridin-4-yl)pyridazin-3-yl)naphthalene-2,7-diol], under setting [2], the EC50 was 25 nM and the “SMN activity Fold” value was determined as 2.47 Fold.

With `CN(c1ccc(-c2cc3ccc(OCCCO)cc3cc2O)nn1)C1CC(C)(C)NC(C)(C)C1` [Example 20-7, 7-(3-hydroxypropoxy)-3-(6-(methyl(2,2,6,6-tetramethylpiperidin-4-yl)amino)pyridazin-3-yl)naphthalen-2-ol], under setting [2], the EC50 was 7 nM and the “SMN activity Fold” value stood at 2.75 Fold.

With `CN(c1ccc(-c2ccc(-c3nc([N+](=O)[O-])c[nH]3)cc2O)nn1)C1CC(C)(C)NC(C)(C)C1` [Example 42-8, 2-(6-(methyl(2,2,6,6-tetramethylpiperidin-4-yl)amino)pyridazin-3-yl)-5-(4-nitro-1H-imidazol-2-yl)phenol], under setting [2], the EC50 turned out to be 756 nM and the “SMN activity Fold” value is on record as 2.82 Fold.

With `CN(c1ccc(-c2ccc(-c3ccn4ccnc4c3)cc2O)nn1)C1CC(C)(C)NC(C)(C)C1` [Example 41-19, 5-(imidazo[1,2-a]pyridin-7-yl)-2-(6-(methyl(2,2,6,6-tetramethylpiperidin-4-yl)amino)pyridazin-3-yl)phenol], under setting [2], the EC50 came to 17 nM and the “SMN activity Fold” value is recorded as 2.62 Fold.

`CN(c1ccc(-c2cc3c(cc2O)CCn2cncc2-3)nn1)C1CC(C)(C)NC(C)(C)C1` [Example 35-6, 9-(6-(methyl(2,2,6,6-tetramethylpiperidin-4-yl)amino)pyridazin-3-yl)-5,6-dihydroimidazo[5,1-a]isoquinolin-8-ol]: under setting [2], it took 51 nM to reach a half-maximal effect (EC50) and the “SMN activity Fold” value was found to be 2.21 Fold.

Turning to `CC1CC(Oc2ccc(-c3ccc(-n4cccn4)cc3O)nn2)CC(C)N1` (single isomer, unassigned) [Example 17-4, 2-(6-((2,6-Dimethylpiperidin-4-yl)oxy)pyridazin-3-yl)-5-(1H-pyrazol-1-yl)phenol], under setting [2], the EC50 was 92 nM and the “SMN activity Fold” value was 3.25 Fold.

As for `COCCCOc1ccc2cc(-c3ccc(N(C)C4CC(C)(C)NC(C)(C)C4)nn3)c(O)cc2c1` [Example 20-8, 7-(3-methoxypropoxy)-3-(6-(methyl(2,2,6,6-tetramethylpiperidin-4-yl)amino)pyridazin-3-yl)naphthalen-2-ol], under setting [2], the EC50 was 30 nM and the “SMN activity Fold” value is on record as 2.61 Fold.

For the molecule `COc1ccc2cc(-c3ccc(N(C)C4CC(C)(C)N(C)C(C)(C)C4)nn3)c(O)cc2c1` [Example 24-7, 7-methoxy-3-(6-(methyl(1,2,2,6,6-pentamethylpiperidin-4-yl)amino)pyridazin-3-yl)naphthalen-2-ol], under setting [2], the response was half-maximal at 31 nM (EC50) and the “SMN activity Fold” value is given as 2.57 Fold.

Take `CC1(C)CC(Oc2ccc(-c3cc4ccccc4s3)nn2)CC(C)(C)N1` [Example 1-6, 3-(benzo[b]-thiophen-2-yl)-6-(2,2,6,6-tetra-methylpiperidin-4-yloxy)pyridazine]: under setting [1], the response was half-maximal at 2440 nM (EC50) and the “SMN activity Fold” value is 2.00 Fold.

Turning to `CC1CC(Oc2ccc(-c3ccc(-n4cccn4)cc3O)nn2)CC(C)N1` (single isomer, unassigned) [Example 17-3, 2-(6-((2,6-Dimethylpiperidin-4-yl)oxy)pyridazin-3-yl)-5-(1H-pyrazol-1-yl)phenol], under setting [2], the EC50 was 183 nM and the “SMN activity Fold” value was 2.75 Fold.

In the case of `COc1cc(-c2cc(O)c(-c3ccc(N(C)C4CC(C)(C)NC(C)(C)C4)nn3)c(F)c2)ccn1` [Example 40-1, 3-fluoro-5-(2-methoxypyridin-4-yl)-2-(6-(methyl(2,2,6,6-tetramethylpiperidin-4-yl)amino)pyridazin-3-yl)phenol], under setting [2], the EC50 was found to be 79 nM and the “SMN activity Fold” value was 2.58 Fold.

Consider `CN(c1ccc(-c2c(O)cc(-c3ccn(C)c(=O)c3)cc2OC(F)(F)F)nn1)C1CC(C)(C)NC(C)(C)C1` [Example 25-6, 4-(3-hydroxy-4-(6-(methyl(2,2,6,6-tetramethylpiperidin-4-yl)amino)pyridazin-3-yl)-5-(trifluoromethoxy)phenyl)-1-methylpyridin-2(1H)-one], for which, under setting [2], the EC50 came to 107 nM and the “SMN activity Fold” value came to 2.16 Fold.

Turning to `CN(c1ccc(-c2ccc(-n3nccc3N)cc2O)nn1)C1CC(C)(C)NC(C)(C)C1` [Example 16-3, 5-(5-amino-1H-pyrazol-1-yl)-2-(6-(methyl-(2,2,6,6-tetramethyl-piperidin-4-yl)amino)pyridazin-3-yl)phenol], under setting [2], the EC50 was 625 nM and the “SMN activity Fold” value amounted to 2.39 Fold.

Consider `CN(c1ccc(-c2ccc(-n3cccc3)nc2)nn1)C1CC(C)(C)NC(C)(C)C1` [Example 1-18, methyl-[6-(6-pyrrol-1-yl-pyridin-3-yl)-pyridazin-3-yl]-(2,2,6,6-tetramethyl-piperidin-4-yl)-amine], for which, under setting [1], the midpoint of the response, the EC50, lay at 1130 nM and the “SMN activity Fold” value is listed as 2.69 Fold.

Take `C[C@H](O)[C@@H]1CC(Oc2ccc(-c3ccc(-n4cccn4)cc3O)nn2)CC(C)(C)N1` (some centres unmarked) [Example 23-1]: under setting [2], the EC50 turned out to be 3650 nM and the “SMN activity Fold” value is given as 2.32 Fold.

Regarding `CN(c1ccc(-c2c(O)cc(-c3cn[nH]c3)cc2OC(F)(F)F)nn1)C1CC(C)(C)NC(C)(C)C1` [Example 25-5, 2-(6-(methyl(2,2,6,6-tetramethylpiperidin-4-yl)amino)pyridazin-3-yl)-5-(1H-pyrazol-4-yl)-3-(trifluoromethoxy)phenol], under setting [2], the response was half-maximal at 96 nM (EC50) and the “SMN activity Fold” value came to 2.36 Fold.

With `CN(c1ccc(-c2cc(Cl)c(-c3cn[nH]c3)cc2O)nn1)C1CC(C)(C)NC(C)(C)C1` [Example 34-1, 4-chloro-2-(6-(methyl(2,2,6,6-tetramethylpiperidin-4-yl)amino)pyridazin-3-yl)-5-(1H-pyrazol-4-yl)phenol], under setting [2], the EC50 came to 7 nM and the “SMN activity Fold” value turned out to be 2.80 Fold.

Source of the values: patent US10195196B2, “1,4-disubstituted pyridazine analogs there of and methods for treating SMN-deficiency-related conditions” (NOVARTIS AG, priority 2012, dated 2019).
